The results in this text go back to US8846704B2, “Thiopyrimidine-based compounds and uses thereof” (YM Biosciences Austraila Pty Ltd, priority 2007, dated 2014).

Where only a bound is given, the exact number is not on record here.

For this assay, the target named is T1, BaF3 TELJAK3 cells (Homo sapiens, UniProt P52333).
T1 construct: fused on or other part: TEL (ETV6) N-terminal part, coding nucleotides 1-487, serves as the oligomerising partner; It is fused through a Sal I site to the JAK3 kinase domain and expressed from pTRE2 in BaF3 cells bearing pTET-off; P41212 (Transcription factor ETV6)
T1 sequence (P52333 1-1124): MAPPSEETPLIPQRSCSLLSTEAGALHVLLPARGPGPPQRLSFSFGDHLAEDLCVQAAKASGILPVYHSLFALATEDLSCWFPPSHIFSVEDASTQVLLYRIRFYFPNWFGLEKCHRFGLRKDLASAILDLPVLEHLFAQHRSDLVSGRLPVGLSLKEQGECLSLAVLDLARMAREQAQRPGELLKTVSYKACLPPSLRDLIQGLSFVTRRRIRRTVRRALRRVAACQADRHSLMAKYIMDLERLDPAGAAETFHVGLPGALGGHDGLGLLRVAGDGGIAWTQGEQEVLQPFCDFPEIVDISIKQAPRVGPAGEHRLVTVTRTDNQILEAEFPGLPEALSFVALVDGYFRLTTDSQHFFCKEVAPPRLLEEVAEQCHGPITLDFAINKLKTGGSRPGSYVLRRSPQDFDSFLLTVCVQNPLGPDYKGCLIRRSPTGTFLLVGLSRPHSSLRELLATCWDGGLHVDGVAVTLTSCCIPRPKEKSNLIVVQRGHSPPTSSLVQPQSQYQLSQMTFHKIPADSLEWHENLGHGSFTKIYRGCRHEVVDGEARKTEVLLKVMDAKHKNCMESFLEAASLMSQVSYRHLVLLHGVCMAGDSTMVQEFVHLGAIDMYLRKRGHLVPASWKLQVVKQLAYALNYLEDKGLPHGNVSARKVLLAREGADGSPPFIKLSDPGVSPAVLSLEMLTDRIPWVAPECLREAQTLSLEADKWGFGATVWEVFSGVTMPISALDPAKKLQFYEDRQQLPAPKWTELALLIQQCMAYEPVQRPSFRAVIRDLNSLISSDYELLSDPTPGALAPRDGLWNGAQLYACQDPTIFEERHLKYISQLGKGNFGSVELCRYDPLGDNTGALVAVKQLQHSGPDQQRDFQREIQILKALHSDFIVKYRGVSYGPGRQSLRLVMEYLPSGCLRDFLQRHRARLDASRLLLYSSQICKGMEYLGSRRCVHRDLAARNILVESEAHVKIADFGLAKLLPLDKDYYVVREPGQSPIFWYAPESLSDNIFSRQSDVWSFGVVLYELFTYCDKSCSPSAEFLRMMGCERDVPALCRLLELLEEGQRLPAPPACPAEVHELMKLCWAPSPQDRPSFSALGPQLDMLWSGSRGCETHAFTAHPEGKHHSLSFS
As to the kind of experiment: Cellular screening, BaF3 TEL:JAK3 cells, Alamar Blue. The class given is cell-based. The conditions noted are these: 40 hr, read-out: BafT_J3 IC50_nM. The gist of the method:
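BaF3 cells carrying pTET-off and a TEL–JAK3 kinase-domain fusion, selected for growth-factor independence, were grown in DMEM with 10% Tet-approved FBS without WEHI 3B medium. Cells were exposed to compounds for 40 h at 37 °C, 5% CO2. Viability was read with Alamar Blue (4–6 h) at 544 nm.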
In general terms: Resazurin is reduced to fluorescent resorufin, in cell work by metabolically active cells.
For the compound `C=CC(=O)Nc1ccc(Sc2ccnc(Nc3cccc(S(=O)(=O)NCc4ccccc4)c3)n2)cc1` [Compound 366, N-(4-(2-(3-(N-benzylsulfamoyl)phenylao)pyrimidin-4-ylthio)phenyl)acrylamide], the GI50 was below 5 µM.

On to `C=CC(=O)Nc1ccc(Sc2ccnc(Nc3ccc(S(=O)(=O)N4CCOCC4)cc3)n2)cc1` [Compound 367, N-(4-(2-(4-(morpholinosulfonyl)phenylao)pyrimidin-4-ylthio)phenyl)acrylamide], for which the GI50 is below 5 µM.

Take `C=CC(=O)Nc1ccc(Sc2ccnc(Nc3ccc(S(=O)(=O)NCc4ccccc4)cc3)n2)cc1` [Compound 368, N-(4-(2-(4-(N-benzylsulfamoyl)phenylao)pyrimidin-4-ylthio)phenyl)acrylamide]: the GI50 was below 5 µM.

As to `C=CC(=O)Nc1ccc(Sc2ccnc(Nc3ccc(S(=O)(=O)N4CCN(C)CC4)cc3)n2)cc1` [Compound 370, N-(4-(2-(4-(4-methylpiperazin-1-ylsulfonyl)phenylao)pyrimidin-4-ylthio)phenyl)acrylamide], the GI50 is below 5 µM.

Take `C=CC(=O)Nc1ccc(Sc2ccnc(Nc3ccc(S(=O)(=O)NCCC(C)C)cc3)n2)cc1` [Compound 371, N-(4-(2-(4-(N-isopentylsulfamoyl)phenylao)pyrimidin-4-ylthio)phenyl)acrylamide]: the GI50 is below 5 µM.

With `C=CC(=O)Nc1ccc(Sc2ccnc(Nc3cccc(S(=O)(=O)N4CCOCC4)c3)n2)cc1` [Compound 372, N-(4-(2-(3-(morpholinosulfonyl)phenylao)pyrimidin-4-ylthio)phenyl)acrylamide], the GI50 was below 5 µM.

Take `C=CC(=O)Nc1ccc(Sc2ccnc(Nc3ccc(S(=O)(=O)N4CCOCC4)c(OC)c3)n2)cc1` [Compound 373, N-(4-(2-(3-methoxy-4-(morpholinosulfonyl)phenylao)pyrimidin-4-ylthio)phenyl)acrylamide]: the GI50 was below 5 µM.

As to `O=C(Nc1ccc(Sc2ccnc(Nc3ccc(N4CCOCC4)cc3)n2)cc1)C1CC1(F)Cl` (stereo not shown) [Compound 378, 2-chloro-2-fluoro-N-(4-(2-(4-morpholinophenylao)pyrimidin-4-ylthio)phenyl)cyclopropanecarboxamide], the GI50 is below 1 µM.

As for `Cc1cnc(Nc2ccc(N3CCOCC3)cc2)nc1Sc1ccc(NC(=O)/C(Br)=C\C(=O)O)cc1` [Compound 381, (E)-3-bromo-4-(4-(5-methyl-2-(4-morpholinophenylao)pyrimidin-4-ylthio)phenylao)-4-oxobut-2-enoic acid], the GI50 is below 20 µM.

For the compound `Cc1cnc(Nc2ccc(N3CCOCC3)cc2)nc1Sc1ccc(NC(=O)CCC(=O)O)cc1` [Compound 383, 4-(4-(5-methyl-2-(4-morpholinophenylao)pyrimidin-4-ylthio)phenylao)-4-oxobutanoic acid], the GI50 was above 20 µM.

In the case of `Cc1cnc(Nc2ccc(N3CCOCC3)cc2)nc1Sc1ccc(N2C(=O)CCC2=O)cc1` [Compound 384, 1-(4-(5-methyl-2-(4-morpholinophenylao)pyrimidin-4-ylthio)phenyl)pyrrolidine-2,5-dione], the GI50 was above 20 µM.

`CNC(=O)CCC(=O)Nc1ccc(Sc2nc(Nc3ccc(N4CCOCC4)cc3)ncc2C)cc1` [Compound 386, N1-methyl-N4-(4-(5-methyl-2-(4-morpholinophenylao)pyrimidin-4-ylthio)phenyl)succinamide]: the GI50 is above 20 µM.

With `Cc1cnc(Nc2ccc(N3CCOCC3)cc2)nc1Sc1ccc(NC(=O)/C=C/C(=O)O)cc1` [Compound 387, (E)-4-(4-(5-methyl-2-(4-morpholinophenylao)pyrimidin-4-ylthio)phenylao)-4-oxobut-2-enoic acid], the GI50 is above 20 µM.

Regarding `CCOC(=O)/C=C\C(=O)Nc1ccc(Sc2nc(Nc3ccc(N4CCOCC4)cc3)ncc2C)cc1` [Compound 388, (Z)-ethyl 4-(4-(5-methyl-2-(4-morpholinophenylao)pyrimidin-4-ylthio)phenylao)-4-oxobut-2-enoate], the GI50 was below 5 µM.

Take `Cc1cnc(Nc2ccc(N3CCOCC3)cc2)nc1Sc1ccc(N2C(=O)C=CC2=O)cc1` [Compound 390, 1-(4-(5-methyl-2-(4-morpholinophenylao)pyrimidin-4-ylthio)phenyl)-1H-pyrrole-2,5-dione]: the GI50 was below 5 µM.

Consider `C=CC(=O)Nc1ccc(Sc2ccnc(Nc3ccc4c(c3)OCO4)n2)cc1` [Compound 393, N-(4-(2-(benzo[d][1,3]dioxol-5-ylao)pyrimidin-4-ylthio)phenyl)acrylamide], for which the GI50 is below 1 µM.
